US20260070922A1, “PYRAZOLE AND IMIDAZOLE DERIVATIVES AS DUAL OREXIN AND KAPPA-OPIOID RECEPTORS MODULATORS COMPOSITION, METHODS FOR TREATING NEUROLOGICAL AND PSYCHIATRIC DISORDERS” (HAGER BIOSCIENCES, LLC, priority 2022, published 2026)

What was measured:
[1] = target: T1, human orexin-2 receptor (OX2R) (Homo sapiens, UniProt O43614); assay: In vitro orexin antagonism assay: intracellular calcium measurement (FLIPR), orexin-A 3 nM as agonist; format: cell-based; settings: for inhibition at 1 µM: read-out: OX2R, % Inh. @ 1 uM; for IC50: first value of IC50/Kb cell; for Kb: second value of IC50/Kb cell
T1 construct: expressed in transfected cells; host or cells: CHO cells (G418 selection)
T1 sequence (O43614 1-444): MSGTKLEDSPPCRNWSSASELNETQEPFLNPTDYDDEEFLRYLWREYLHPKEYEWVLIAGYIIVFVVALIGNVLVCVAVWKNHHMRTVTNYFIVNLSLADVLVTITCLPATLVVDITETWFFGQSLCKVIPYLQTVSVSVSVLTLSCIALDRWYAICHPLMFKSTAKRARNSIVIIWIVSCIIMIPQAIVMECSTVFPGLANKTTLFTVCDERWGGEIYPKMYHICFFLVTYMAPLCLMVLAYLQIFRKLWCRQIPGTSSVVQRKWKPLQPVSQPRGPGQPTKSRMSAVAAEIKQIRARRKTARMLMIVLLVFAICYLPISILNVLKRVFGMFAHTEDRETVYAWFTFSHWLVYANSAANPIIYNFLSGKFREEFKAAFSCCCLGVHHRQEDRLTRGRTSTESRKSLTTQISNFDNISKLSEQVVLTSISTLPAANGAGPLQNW
How it was run: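 CHO cells stably expressing human OX1R or OX2R, loaded with fluo-4 AM (3 μM, 5 mM probenecid) for 50 min at 37 °C, then 30 min at RT. Antagonist preincubated 120 min before 3 nM orexin-A; FLIPR fluorescence peak height vs vehicle gives IC50, possibly normalized to on-plate reference; geometric mean of repeats.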

[2] = target: T2, Orexin type 1 (OX1R) receptor (Homo sapiens, UniProt O43613); assay: as above; format: cell-based; settings: for IC50: first value of IC50/Kb cell; for inhibition at 1 µM: read-out: OX1R, % Inh. @ 1 uM; for Kb: second value of IC50/Kb cell
T2 construct: expressed in transfected cells; host or cells: CHO cells (G418 selection)
T2 sequence (O43613 1-425): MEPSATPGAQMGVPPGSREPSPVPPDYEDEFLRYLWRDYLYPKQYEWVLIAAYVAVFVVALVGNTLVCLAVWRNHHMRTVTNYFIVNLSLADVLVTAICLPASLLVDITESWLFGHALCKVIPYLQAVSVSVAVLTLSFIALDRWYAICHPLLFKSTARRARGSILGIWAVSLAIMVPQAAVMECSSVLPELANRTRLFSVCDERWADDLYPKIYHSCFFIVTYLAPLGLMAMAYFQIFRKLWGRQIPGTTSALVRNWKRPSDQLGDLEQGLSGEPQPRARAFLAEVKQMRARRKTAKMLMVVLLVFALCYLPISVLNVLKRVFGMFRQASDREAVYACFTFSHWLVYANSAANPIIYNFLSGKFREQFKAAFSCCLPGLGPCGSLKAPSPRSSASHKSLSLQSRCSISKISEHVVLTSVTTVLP
How it was run: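 CHO cells expressing the human orexin receptor were loaded with 3 μM fluo-4 AM plus 5 mM probenecid, then exposed to antagonist for 120 min before 3 nM orexin-A (final) was added on a FLIPR.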

[3] = target: T3, human k-opioid receptor (kOR) (Homo sapiens, UniProt P41145); assay: Human k-opioid (KOP) receptor (agonist radioligand [3H]U-69593) binding assay, transfected RBL cell membranes; settings: for IC50: first value of IC50/Ki cell; for Ki: second value of IC50/Ki cell
T3 construct: expressed in transfected cells; host or cells: RBL cells (membrane homogenates)
T3 sequence (P41145 whole entry): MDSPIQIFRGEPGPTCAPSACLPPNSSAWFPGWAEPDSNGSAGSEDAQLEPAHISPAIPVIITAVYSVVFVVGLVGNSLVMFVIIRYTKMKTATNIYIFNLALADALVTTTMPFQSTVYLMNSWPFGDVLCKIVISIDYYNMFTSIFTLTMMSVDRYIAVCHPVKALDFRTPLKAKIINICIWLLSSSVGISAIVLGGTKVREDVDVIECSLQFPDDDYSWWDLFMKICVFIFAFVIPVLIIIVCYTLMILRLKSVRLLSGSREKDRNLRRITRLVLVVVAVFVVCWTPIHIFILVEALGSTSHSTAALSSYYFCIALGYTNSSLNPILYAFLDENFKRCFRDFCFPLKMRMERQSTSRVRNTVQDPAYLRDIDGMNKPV
Protocol: Human k-Opioid (KOP) Receptor (Agonist Radioligand) Binding Assay
Purpose: Evaluation of the affinity of compounds for the human k-opioid receptor in transfected RBL cells determined in a radioligand binding assay.
Experimental protocol: Cell membrane homogenates (about 80 μg protein) are incubated for 60 min at 22° C. with 0.5 nM [3H]U-69593 in the absence or presence of the test compound in a buffer containing 50 mM Tris-HCl (pH 7.4), 10 mM MgCl2 and 1 mM EDTA. Nonspecific binding is determined in the presence of 10 μM naloxone. Following incubation, the samples are filtered rapidly under vacuum through glass fiber filters ([…], Packard) presoaked with 0.3% PEI and rinsed several times with ice-cold 50 mM Tris-HCl using a 96-sample cell harvester (Unifilter, Packard). The filters are dried then counted for radioactivity in a scintillation counter (Topcount, Packard) using a scintillation cocktail (Microscint 0, Packard). The results are expressed as a percent inhibition of the control radioligand specific binding. The standard reference compound is U-50488, which is tested in each experiment at several concentrations to obtain a competition curve from which its IC50 is calculated.

Row | Compound | inhibition at 1 µM [1] [%] | IC50 [2] [nM] | inhibition at 1 µM [2] [%] | Kb [2] [nM] | inhibition at 1 µM ([3]; read-out: KOR % Inh. @ 1 uM) [%] | OX2R, % Inh. @ 1 uM [1] [%] | IC50 [1] [nM] | Kb [1] [nM] | OX1R, % Inh. @ 1 uM [2] [%] | KOR % Inh. @ 1 uM [3] [%] | IC50 [3] [nM] | Ki [3] [nM]
1 | O=C(c1c(-c2ccccc2)nn2c1COCC2)N1CCCC[C@H]1COc1ccc(C(F)(F)F)cn1 [Example 46] | 25.3 | 7 | 94.8 | 1 | 38 | – | – | – | – | – | – | –
2 | O=C(c1c(-c2ccc(F)cc2)nn2ccccc12)N1CCC[C@H]1Cn1ccc(-c2ccc(F)cc2)n1 [Example 55] | – | 5 | – | 1 | – | 93 | 33 | 5 | 100 | 66 | 480 | 260
3 | O=C(c1c(-c2ccc(F)cc2)nn2ccccc12)N1CCC[C@H]1Cn1ccc(-c2ccc(C(F)(F)F)cc2)n1 [Example 56] | – | 576 | – | 121 | – | 12 | – | – | 59 | 76 | 450 | 250
4 | O=C(c1c(-c2ccccc2)nn2c1COCC2)N1CCC[C@H]1Cn1ccc(-c2ccc(F)cc2)n1 [Example 57] | – | 65 | – | 14 | – | 52 | 773 | 107 | 73 | 76 | 440 | 240
5 | O=C(c1nn2cccnc2c1-c1ccccn1)N1CCC[C@H]1COc1ccc(C(F)(F)F)cn1 [Example 190] | 28 | 5 | 91 | 1 | – | – | – | – | – | – | – | –
6 | O=C(c1c(-c2ncccn2)nn2ccccc12)N1CCC[C@H]1COc1ccc(C(F)(F)F)cn1 [Example 191] | 11 | 49 | 100 | 10 | – | – | – | – | – | – | – | –
7 | O=C(c1c(-c2ccccn2)nn2ccccc12)N1CCC[C@H]1COc1ccc(C(F)(F)F)cn1 [Example 192] | 49 | 11 | 88 | 2 | – | – | – | – | – | – | – | –
8 | O=C(c1nn2cccnc2c1-c1ccccn1)N1CCC[C@H]1Cn1ccc(-c2ccc(F)cn2)n1 [Example 193] | 71 | 16 | 91 | 3 | – | – | – | – | – | – | – | –
9 | O=C(c1nn2c(c1-c1ccccn1)OCCC2)N1CCC[C@H]1Cn1ccc(-c2ccccn2)n1 [Example 195] | 29 | 15 | 100 | 3 | – | – | – | – | – | – | – | –
10 | O=C(c1nn2c(c1-c1ccccn1)COCC2)N1CCC[C@H]1Cn1ccc(-c2ccc(F)cn2)n1 [Example 196] | – | 24 | – | 5 | – | 39 | – | – | 99 | – | – | –
11 | O=C(c1nn2c(c1-c1ccccn1)OCCC2)N1CCC[C@H]1Cc1nc(-c2ccccn2)no1 [Example 199] | 8 | – | 64 | – | – | – | – | – | – | – | – | –
12 | O=C(c1nn2c(c1-c1ccccn1)OCCC2)N1CCC[C@H]1COc1ccc(C(F)(F)F)cn1 [Example 201] | 19 | 9 | 100 | 2 | – | – | – | – | – | – | – | –
13 | O=C(c1c(-c2ncccn2)nn2ccccc12)N1CCC[C@H]1Cn1ccc(-c2ccc(F)cn2)n1 [Example 203] | 78 | 17 | 98 | 4 | – | – | – | – | – | – | – | –
14 | O=C(c1c(-c2ncccn2)nn2ccccc12)N1CCC[C@H]1Cn1cc(-c2ccc(F)cn2)cn1 [Example 204] | 66 | – | 53 | – | – | – | – | – | – | – | – | –
15 | O=C(c1c(-c2ccccn2)nn2ccccc12)N1CCC[C@H]1Cn1ccc(-c2ccc(F)cn2)n1 [Example 205] | 98 | 12 | 99 | 3 | – | – | 24 | 4 | – | – | – | –
16 | O=C(c1c(-c2ccccn2)nn2ccccc12)N1CCC[C@H]1Cn1cc(-c2ccc(F)cn2)cn1 [Example 206] | 83 | – | 67 | – | – | – | 62 | 11 | – | – | – | –
